# Assay results published in US10047067B2, “Composition for treating kidney disease comprising pyrazole derivative” (Ewha University-Industry Collaboration Foundation, priority 2012, dated 2018).
# Entries after “also recorded” stand apart in the source; their conditions may differ.
# Columns and labels:
# C57BL/6J mice [1] = test: Collagen accumulation (Masson's trichrome, picrosirius red) and macrophage marker F4/80 immunohistochemical staining of renal tissue; type: in vivo; settings: treatment group vs diabetes group, 10 mg/kg/day oral, 12 weeks; listed as Example 1, 10 mg/kg/day
# Protocol: Immunohistochemical staining was performed as previously disclosed (Noh H, Kim J S, Han K-H, Lee G T, Song J S, Chung S H, Jeon J S, Ha H, Lee H B: Oxidative stress during peritoneal dialysis: implications in functional and structural changes in the membrane. Kidney Int. 69: 2022-2028, 2006).
# Briefly, as described in Example 11, diabetes was induced in mice that were then treated with 1-(pyridin-2-yl)-3-phenyl-4-propyl-1H-pyrazol-5-ol.HCl, the compound of Example 1, and scarified 12 weeks later. After cardiac perfusion with 0.1 M PBS (phosphate-buffered saline), tissue fixation was performed overnight with 2% PLP (paraformaldehyde-lysine-periodate). Paraffin embedding was conducted by sequential treatment with: 70% ethanol for 1 hr; 80% ethanol for 1 hr; 90% ethanol for 1 hr; 95% ethanol for 1 hr, twice; 100% ethanol for 1 hr, three times; xylene for 30 min, twice; paraffin for 30 min; and paraffin for 1.5 hrs. The paraffin tissue was sliced into a section 4 μm thick, followed by deparaffinization with alcohol. In order to enhance antibody penetration thereinto, the renal tissue was immersed in 10 mM citrate buffer (pH 6.0), heated with microwaves (at 700 watts for 5 min and then at 100 watts for 5 min), and then finally incubated at room temperature for 30 min Intrinsic peroxidase was removed by treatment with peroxidase blocking reagent (Peroxidase Blocking Reagent Ready-To-Use, Dakocytomation) for 30 min. Subsequently, the renal tissue was incubated with a protein block serum-free solution (Protein Blocking Serum-Free Ready-To-Use, Dakocytomation) for 15 min and then overnight with a primary antibody (F4/80, Santa Cruz) at 4° C., followed by amplification with ABC kit (Santa Cruz) using the ABC (avidin-biotin-enzyme complex) method. […]
# To examine tissue injury, staining was performed with Masson's trichrome (Sigma-Aldrich) and picrosirius red (Sigma-Aldrich) according to the manufacturer's instructions. The degree of tissue injury was expressed as tubulointerstitial collagen accumulation per area. […]
# C57BL/6J mice [2] = test: Renal fibrosis: real-time PCR analysis of renal tissues; type: in vivo; settings: renal tissue, treatment group vs diabetes group, 12 weeks
# Protocol: Total RNA was isolated using Trizol reagent (Invitrogen) according to the manufacturer's instruction. The total RNA isolate was used for real-time PCR.
# Briefly, as described in Example 10, diabetes was induced, and 1-(pyridin-2-yl)-3-phenyl-4-propyl-1H-pyrazol-5-ol.HCl, the compound of Example 1 of the present invention, was administered to the mice that were sacrificed 12 weeks later. Then, renal tissues were excised from the mice and homogenized with a predetermined amount (500 μl) of Trizol reagent (Invitrogen), followed by centrifuging the homogenate (13,000 rpm, 10 min). The supernatant was reacted with 200 μl of chloroform for 15 min and centrifuged. The total RNA was precipitated with isopropyl alcohol, and washed with 75% ethyl alcohol before use in experiments. From 2 μg of total RNA, cDNA was synthesized using a reverse transcription kit (Applied Biosystems), and selective mRNA was quantitatively analyzed in ABI 7300 real-time PCR thermal cycler (Applied Biosystems) with the aid of SYBR Green PCR Master Mix kit according to the manufacturer's instruction. Each experiment was run in duplicate with 20 μl. For correct quantitation and identification of results from a single product, a standard curve and a dissociation curve were employed. PCR was performed with 40 thermal cycles of 95° C. for 15 sec and 56° C. for 1 min.
# In FIG. 3, the control (WT) stands for a group in which type 1 diabetes mellitus was not induced, the diabetes group (DM) for a group in which type 1 diabetes mellitus was induced, and the treatment group (DM+compound of Example 1) for a group that was treated with the compound of Example 1 after introduction of type 1 diabetes mellitus. Data of FIG. 3 are expressed as mean±standard error (SE) from 8 to 12 mice per group. Statistic comparison among the groups was analyzed by ANOVA and Fisher's least significant difference test, with significance at p<0.05. *P<0.05 vs. WT, †P<0.05 vs. DM.
smiles,measurement,setting,value
"CCCc1c(-c2ccccc2)nn(-c2ccccn2)c1O.Cl [Compound 18-278, 1-(pyridin-2-yl)-3-phenyl-4-propyl-1H-pyrazol-5-ol.HCl]","collagen accumulation, Masson's trichrome staining (blue area)",C57BL/6J mice [1],in a smaller area than was the diabetes group; also recorded: significantly reduced
same,"collagen accumulation, picrosirius red staining (red area)",C57BL/6J mice [1],a smaller area; also recorded: significantly reduced
same,"macrophage production, immunohistochemical staining (F4/80)",C57BL/6J mice [1],in a smaller area than was the diabetes group; also recorded: significantly reduced
same,expression level of Collagen Iα1 mRNA to 18S rRNA,C57BL/6J mice [2],significantly decreased
same,expression level of F4/80 mRNA to 18S rRNA,C57BL/6J mice [2],significantly decreased
same,expression level of TGF-β1 mRNA to 18S rRNA,C57BL/6J mice [2],significantly decreased
same,expression level of collagen IV mRNA to 18S rRNA,C57BL/6J mice [2],significantly decreased
same,expression level of fibronectin mRNA to 18S rRNA,C57BL/6J mice [2],significantly decreased
